Assay results: article PMC4774911, “Biochemical Screening of Five Protein Kinases from Plasmodium falciparum against 14,000 Cell-Active Compounds” (PLoS ONE, 2016)
Several values for one entry are separate records, joined by “and”; a condition that tells them apart may be missing. Equal values may be shown once.

Key:
Test in all cases: biochemical
Design in all cases: endogenous in cells; host or cells: K562 cell extract; species or system K562 (extract); replicate k of n = 2 (each experiment ID is one independent experiment; two experiment IDs per compound)
Details in all cases: read-out: KDapp
CAMK2D = CAMK2D (Homo sapiens, UniProt Q13557)
NLK = molecular target: T1, NLK (Homo sapiens, UniProt Q9UBE8)
T1 sequence (Q9UBE8 1-527): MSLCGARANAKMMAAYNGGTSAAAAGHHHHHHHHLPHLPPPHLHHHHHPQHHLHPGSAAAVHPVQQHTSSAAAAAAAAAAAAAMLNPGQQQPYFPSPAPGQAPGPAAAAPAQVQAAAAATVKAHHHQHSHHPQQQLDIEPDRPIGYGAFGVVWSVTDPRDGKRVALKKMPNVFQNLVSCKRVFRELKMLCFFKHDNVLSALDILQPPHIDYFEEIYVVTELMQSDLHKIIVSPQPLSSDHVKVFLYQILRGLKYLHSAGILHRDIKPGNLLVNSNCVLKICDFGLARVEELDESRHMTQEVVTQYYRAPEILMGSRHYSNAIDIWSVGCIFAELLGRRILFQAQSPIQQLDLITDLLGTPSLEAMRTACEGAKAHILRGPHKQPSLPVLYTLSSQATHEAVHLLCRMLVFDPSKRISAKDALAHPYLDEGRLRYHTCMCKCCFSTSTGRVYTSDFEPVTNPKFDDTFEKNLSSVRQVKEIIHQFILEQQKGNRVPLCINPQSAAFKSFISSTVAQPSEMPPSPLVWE

STK38 = STK38 (Homo sapiens, UniProt Q15208)
STK4 = molecular target: T2, STK4 (Homo sapiens, UniProt Q13043)
T2 sequence (Q13043 1-487): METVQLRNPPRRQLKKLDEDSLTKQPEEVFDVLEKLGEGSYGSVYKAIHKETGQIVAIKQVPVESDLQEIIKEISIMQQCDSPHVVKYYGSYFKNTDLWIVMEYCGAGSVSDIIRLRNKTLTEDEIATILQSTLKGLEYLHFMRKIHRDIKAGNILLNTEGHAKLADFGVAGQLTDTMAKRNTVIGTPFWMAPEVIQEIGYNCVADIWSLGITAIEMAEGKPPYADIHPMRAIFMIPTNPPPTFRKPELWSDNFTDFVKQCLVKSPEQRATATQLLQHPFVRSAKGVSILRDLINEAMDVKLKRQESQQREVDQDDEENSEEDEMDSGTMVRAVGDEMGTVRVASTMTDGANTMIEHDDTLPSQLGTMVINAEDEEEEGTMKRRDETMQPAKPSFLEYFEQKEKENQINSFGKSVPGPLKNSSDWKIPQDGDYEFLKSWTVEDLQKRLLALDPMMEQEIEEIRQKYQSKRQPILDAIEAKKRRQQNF

TAOK3 = molecular target: T3, TAOK3 (Homo sapiens, UniProt Q9H2K8)
T3 sequence (Q9H2K8 1-898): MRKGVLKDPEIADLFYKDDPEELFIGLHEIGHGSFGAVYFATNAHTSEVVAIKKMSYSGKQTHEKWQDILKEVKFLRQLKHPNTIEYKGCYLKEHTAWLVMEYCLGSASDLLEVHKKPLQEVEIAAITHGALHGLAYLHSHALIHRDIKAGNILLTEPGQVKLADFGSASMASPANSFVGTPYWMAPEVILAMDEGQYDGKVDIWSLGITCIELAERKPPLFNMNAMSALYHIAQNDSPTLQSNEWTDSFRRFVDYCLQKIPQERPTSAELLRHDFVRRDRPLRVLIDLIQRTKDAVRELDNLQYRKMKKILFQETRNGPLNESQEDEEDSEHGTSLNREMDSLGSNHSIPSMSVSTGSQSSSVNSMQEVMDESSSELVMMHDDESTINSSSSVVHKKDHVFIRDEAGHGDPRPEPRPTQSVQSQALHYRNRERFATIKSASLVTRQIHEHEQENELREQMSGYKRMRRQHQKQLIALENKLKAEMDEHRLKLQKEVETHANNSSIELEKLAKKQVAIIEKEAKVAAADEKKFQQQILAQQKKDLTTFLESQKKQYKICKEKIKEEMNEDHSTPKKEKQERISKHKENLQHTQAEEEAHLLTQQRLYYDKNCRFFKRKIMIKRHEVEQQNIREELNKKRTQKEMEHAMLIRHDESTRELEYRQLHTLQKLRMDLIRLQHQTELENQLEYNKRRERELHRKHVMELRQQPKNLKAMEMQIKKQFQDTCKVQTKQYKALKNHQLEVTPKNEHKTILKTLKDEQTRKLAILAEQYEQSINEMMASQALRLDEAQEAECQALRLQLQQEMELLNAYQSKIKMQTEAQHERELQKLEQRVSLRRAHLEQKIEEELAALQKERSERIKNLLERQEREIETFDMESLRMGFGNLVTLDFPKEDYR

CDK10 = CDK10 (Homo sapiens, UniProt Q15131)
Sequence of CDK10 (Q15131 whole entry): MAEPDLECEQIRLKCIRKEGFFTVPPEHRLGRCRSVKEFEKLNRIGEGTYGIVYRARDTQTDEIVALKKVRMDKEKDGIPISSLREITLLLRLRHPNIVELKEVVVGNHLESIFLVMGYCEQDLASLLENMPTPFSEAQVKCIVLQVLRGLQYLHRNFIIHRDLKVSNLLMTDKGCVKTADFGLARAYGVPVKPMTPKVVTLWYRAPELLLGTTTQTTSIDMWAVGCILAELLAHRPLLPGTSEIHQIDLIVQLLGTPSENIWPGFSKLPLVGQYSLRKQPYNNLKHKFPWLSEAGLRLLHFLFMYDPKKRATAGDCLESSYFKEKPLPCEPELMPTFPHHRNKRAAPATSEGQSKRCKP

Sequence of CAMK2D (Q13557 whole entry): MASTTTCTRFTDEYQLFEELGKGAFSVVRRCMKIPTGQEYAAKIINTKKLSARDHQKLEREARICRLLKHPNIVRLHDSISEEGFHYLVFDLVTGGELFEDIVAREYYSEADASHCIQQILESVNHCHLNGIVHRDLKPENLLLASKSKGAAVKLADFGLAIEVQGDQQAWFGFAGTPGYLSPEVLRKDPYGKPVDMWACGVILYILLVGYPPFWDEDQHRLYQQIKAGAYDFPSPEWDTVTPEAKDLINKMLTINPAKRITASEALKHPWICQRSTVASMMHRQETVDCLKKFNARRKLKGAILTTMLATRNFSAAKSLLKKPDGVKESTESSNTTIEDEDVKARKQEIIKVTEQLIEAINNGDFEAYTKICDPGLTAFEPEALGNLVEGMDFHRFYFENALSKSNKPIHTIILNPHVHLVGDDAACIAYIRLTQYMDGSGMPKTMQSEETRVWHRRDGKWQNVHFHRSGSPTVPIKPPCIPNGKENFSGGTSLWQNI
Sequence of STK38 (Q15208 whole entry): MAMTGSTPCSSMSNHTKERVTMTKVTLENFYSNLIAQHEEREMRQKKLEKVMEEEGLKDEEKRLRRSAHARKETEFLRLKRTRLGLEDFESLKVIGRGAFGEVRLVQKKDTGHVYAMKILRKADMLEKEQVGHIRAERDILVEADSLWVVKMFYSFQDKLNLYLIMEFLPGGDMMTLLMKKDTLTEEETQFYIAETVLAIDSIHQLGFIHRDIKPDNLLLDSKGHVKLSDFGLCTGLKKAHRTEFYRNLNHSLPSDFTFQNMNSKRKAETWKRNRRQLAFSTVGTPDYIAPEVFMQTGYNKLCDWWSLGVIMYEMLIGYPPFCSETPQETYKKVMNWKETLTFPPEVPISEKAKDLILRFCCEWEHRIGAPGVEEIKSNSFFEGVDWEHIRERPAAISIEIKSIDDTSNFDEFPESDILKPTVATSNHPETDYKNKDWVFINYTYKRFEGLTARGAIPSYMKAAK

`CN1CCN(c2ccc(Nc3ncc(C#N)c(Nc4ccccc4C(N)=O)n3)cc2)CC1.Cl` [TCMDC-134116] was tested, and the Kd (CAMK2D) was 323 nM and 163 nM, the Kd (NLK) was 950 nM and 890 nM and the Kd (STK38) was 306 nM and 253 nM. The Kd (STK4) was 121 nM and 140 nM.

In the case of `Cl.NCC1(c2nc(-c3ccc(Cl)c(O)c3)c(-c3ccncc3)[nH]2)CCCCC1` [TCMDC-141154], the Kd (TAOK3) is reported as 1190 nM and 603 nM.

Compound `CN(C)CC(O)COc1ccc(Nc2ncc([N+](=O)[O-])c(Nc3ccccc3O)n2)cc1.O=C(O)C(F)(F)F` (stereo not drawn) [TCMDC-141399] has a Kd (CDK10) of 630 nM.
